From PubChem BioAssay (NCI) come the findings set out here.

Some test systems named below: A498 renal; BT-549 breast; CAKI-1 renal; EKVX NSCLC; HL-60(TB) leukemia; HT29 colon; MDA-N; MOLT-4 leukemia; NCI-H226 lung; NCI-H23 lung; NCI/ADR-RES ovarian; OVCAR-4 ovarian; SF-268 CNS; SF-295 CNS; SNB-75 CNS; SR leukemia; T-47D breast; UACC-62 melanoma; A549 NSCLC.
Common to all, as to assay: NCI anticancer screen, dose series, 48 h

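Growth conditions: 96-well plates. Treatment: test compound, 48 hours, 5 concentrations. Analysis: linear interpolation between bracketing concentrations; unreached endpoints set to highest concentration. TGI is the concentration that stops growth completely.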

Turning to `O=C1/C(=C/c2ccc(Br)s2)NC(=S)N1CN1CCCCC1`, the TGI is 91.7 µM in the assay on A498 renal; 96.8 µM with BT-549 breast; 59.2 µM with CAKI-1 renal; greater than 100 µM in the assay with EKVX NSCLC; 50 µM with HL-60(TB) leukemia; greater than 100 µM with HT29 colon. In addition, the TGI was greater than 100 µM with MDA-N; 66.8 µM in the assay with MOLT-4 leukemia; greater than 100 µM in the assay with NCI-H226 lung; greater than 100 µM in the assay with NCI-H23 lung; 98.2 µM in the assay with NCI/ADR-RES ovarian; greater than 100 µM with OVCAR-4 ovarian. The TGI in the assay with SF-268 CNS was greater than 100 µM; in the assay on SF-295 CNS, 91.2 µM; in the assay with SNB-75 CNS, greater than 100 µM; in the assay with SR leukemia, 47.1 µM; in the assay with T-47D breast, greater than 100 µM; in the assay on UACC-62 melanoma, greater than 100 µM.

In the case of `Cc1nc2ccccc2n1Cc1nnc(-c2ccccc2)o1`, the TGI with A498 renal, in the assay on A549 NSCLC, in the assay with BT-549 breast, in the assay on EKVX NSCLC, in the assay on HL-60(TB) leukemia and in the assay on HT29 colon was greater than 100 µM each time. Also, the TGI in the assay with MDA-N, in the assay with MOLT-4 leukemia, in the assay with NCI-H23 lung, with NCI/ADR-RES ovarian, in the assay with SF-268 CNS and in the assay on SF-295 CNS was greater than 100 µM throughout. Also, the TGI with SNB-75 CNS, in the assay on SR leukemia, with T-47D breast and with UACC-62 melanoma was greater than 100 µM in each case.

Regarding `CC1C(OS(=O)(=O)c2ccc3[nH]c(=S)sc3c2)CC2C3(C)CCC2(C(C)C(=O)O)C(O)C13` (stereo unspecified), the TGI was greater than 100 µM with A498 renal; greater than 100 µM with A549 NSCLC; 66 µM with BT-549 breast; 64.3 µM with CAKI-1 renal; greater than 100 µM in the assay on EKVX NSCLC; 58 µM in the assay with HL-60(TB) leukemia. In addition, the TGI with HT29 colon is 35.4 µM; with MDA-N it was 69.8 µM; with MOLT-4 leukemia it was greater than 100 µM; with NCI-H226 lung, 60.4 µM; with NCI-H23 lung, 38.3 µM; with NCI/ADR-RES ovarian it was greater than 100 µM. For the same compound, the TGI is 94.2 µM with OVCAR-4 ovarian; greater than 100 µM with SF-268 CNS; 95.1 µM in the assay with SF-295 CNS; 64.8 µM in the assay on SR leukemia; 48.3 µM in the assay on T-47D breast; 63.3 µM in the assay on UACC-62 melanoma.

`COc1ccc(/C=C2\C[C@H]3[C@@H]4CC=C5C[C@@H](O)CC[C@]5(C)[C@H]4CC[C@]3(C)\C2=N\O)cc1`: the TGI in the assay on A498 renal was 71.7 µM; in the assay with A549 NSCLC, greater than 100 µM; in the assay on BT-549 breast it was 36.5 µM; in the assay on CAKI-1 renal it was 19.3 µM; in the assay with EKVX NSCLC it was 8.78 µM; with HL-60(TB) leukemia, 24.8 µM. The TGI in the assay with HT29 colon is greater than 100 µM; in the assay on MDA-N, greater than 100 µM; with MOLT-4 leukemia, 34.3 µM; with NCI-H226 lung it was 94.1 µM; with NCI-H23 lung, greater than 100 µM; with NCI/ADR-RES ovarian, greater than 100 µM. In addition, the TGI was greater than 100 µM in the assay with OVCAR-4 ovarian; 46.2 µM in the assay on SF-268 CNS; 34.8 µM in the assay with SF-295 CNS; 19 µM with SR leukemia; 4.68 µM in the assay on T-47D breast; 50.3 µM with UACC-62 melanoma.

As to `CC[C@@H]1CC[C@@H]2[C@H](CC[C@]3(C)[C@@H](O[N+](=O)[O-])CC[C@@H]23)[C@H]1C(C)=O`, the TGI was 95.9 µM with A498 renal; greater than 100 µM in the assay with A549 NSCLC; greater than 100 µM in the assay with BT-549 breast; greater than 100 µM in the assay with CAKI-1 renal; 80.9 µM with EKVX NSCLC; 37 µM in the assay with HL-60(TB) leukemia. For the same compound, the TGI was 33.4 µM in the assay on HT29 colon; greater than 100 µM with MDA-N; greater than 100 µM in the assay on MOLT-4 leukemia; greater than 100 µM in the assay with NCI-H226 lung; greater than 100 µM in the assay with NCI-H23 lung; greater than 100 µM with NCI/ADR-RES ovarian. The TGI in the assay with OVCAR-4 ovarian is greater than 100 µM; with SF-268 CNS, greater than 100 µM; with SF-295 CNS it was greater than 100 µM; in the assay on SNB-75 CNS it was greater than 100 µM; in the assay with SR leukemia, greater than 100 µM; with T-47D breast, 96.4 µM.

Turning to `N#CCC(=O)N/N=C\C(O)C(O)C(O)C(O)CO` (stereo unspecified), the TGI in the assay on A498 renal, in the assay with A549 NSCLC, with BT-549 breast, in the assay with CAKI-1 renal, in the assay on HL-60(TB) leukemia and in the assay with HT29 colon was greater than 100 µM throughout. The TGI in the assay on MDA-N, in the assay with MOLT-4 leukemia, in the assay on NCI-H226 lung, in the assay on NCI-H23 lung, in the assay with NCI/ADR-RES ovarian and with SF-268 CNS was greater than 100 µM in each case. Moreover, the TGI in the assay with SF-295 CNS, with SNB-75 CNS, in the assay on SR leukemia, in the assay on T-47D breast and with UACC-62 melanoma was greater than 100 µM in each case.

For `O=C(O)c1ccccc1/C=C1\Cc2cc3c(cc2C1=O)CCC3`, the TGI was 80.1 µM with A498 renal; greater than 100 µM in the assay with A549 NSCLC; greater than 100 µM with BT-549 breast; greater than 100 µM in the assay with EKVX NSCLC; 27.1 µM with HL-60(TB) leukemia; 49.1 µM in the assay on HT29 colon. The TGI was determined as 38.9 µM with MDA-N; 46.5 µM in the assay with MOLT-4 leukemia; 80.8 µM with NCI-H226 lung; 58.8 µM in the assay with NCI-H23 lung; 66.2 µM with NCI/ADR-RES ovarian; 85.7 µM in the assay with OVCAR-4 ovarian. The TGI is greater than 100 µM with SF-268 CNS; 74.7 µM in the assay on SF-295 CNS; 25 µM in the assay with SNB-75 CNS; 28.1 µM in the assay with SR leukemia; 45.6 µM in the assay with T-47D breast; 57.8 µM with UACC-62 melanoma.

As for `Nc1nccc(NCC2(CO)CC(CCc3ccccc3)C2)n1` (stereo unspecified), the TGI stood at 29.3 µM in the assay on A498 renal; 39.7 µM in the assay on A549 NSCLC; 40.3 µM in the assay with BT-549 breast; 28.6 µM in the assay with CAKI-1 renal; 46.9 µM in the assay on EKVX NSCLC; 34.4 µM with HL-60(TB) leukemia. The TGI in the assay with HT29 colon was 23.9 µM; in the assay on MDA-N, 31.4 µM; in the assay on MOLT-4 leukemia it was 41.7 µM; in the assay with NCI-H226 lung it was 51.7 µM; with NCI-H23 lung, 41.4 µM; with NCI/ADR-RES ovarian, 75.7 µM. Further, the TGI in the assay with OVCAR-4 ovarian worked out at 47.2 µM; in the assay on SF-295 CNS, 26.4 µM; in the assay on SNB-75 CNS it was 40.5 µM; in the assay with SR leukemia, 52.6 µM; in the assay with T-47D breast it was 27.6 µM; with UACC-62 melanoma, 28.5 µM.
